PMC6222614, “Disubstituted 4-Chloro-3-nitrophenylthiourea Derivatives: Antimicrobial and Cytotoxic Studies” (Molecules : A Journal of Synthetic Chemistry and Natural …, 2018)
≈ marks a conversion by molar mass, not a printed value. Read-outs that look alike come from different tables or passages of the source.

Tests used:
MT-4 cells = test: Cytotoxicity against mock-infected MT-4 cells (MTT); assay type: cell-based, human; details: concentration reducing viability of mock-infected MT-4 cells by 50%, 96 h
Outline: (§1)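 Uninfected MT-4 cells (HTLV-1-transformed human CD4+ T cells) seeded at 1 × 10^5 cells/mL in RPMI-1640 with 10% FBS and grown with serially diluted compounds at 37 °C, 5% CO2. Viability read by MTT after 96 h.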

HIV-1 IIIB = test: Anti-HIV-1 activity: protection of MT-4 cells from virus-induced cytopathogenicity (MTT); assay type: cell-based, Human Immunodeficiency Virus type-1; details: 50% protection of MT-4 cells from HIV-1 induced cytopathogenicity, MTT, 4-day incubation, read-out: HIV-1IIIB EC50
Outline: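 MT-4 cells (1 × 10^4/well) infected with HIV-1 IIIB at m.o.i. 0.01 (100 CCID50) in presence of serial compound dilutions. Protection from virus-induced cytopathogenicity measured by MTT viability after 4 days at 37 °C.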

CCRF-CEM = test: Antiproliferative assay (MTT); assay type: cell-based, human; details: concentration reducing cell proliferation by 50%, 96 h, mean of three determinations
Method: (§2) Cell lines derived from human hematological tumors were: CD4+ human T-cells containing an integrated HTLV-1 genome (MT-4); CD4+ human acute T-lymphoblastic leukemia (CCRF-CEM); human splenic B-lymphoblastoid cells (WIL-2NS); human acute B-lymphoblastic leukemia (CCRF-SB). Cells were seeded at an initial density of 1 × 10^5 cells/mL in 96 well plates in RPMI-1640 medium supplemented with 10% fetal calf serum (FCS), 100 units/mL penicillin G and 100 μg/mL streptomycin.
(§3) Cell lines derived from human solid tumors were: Skin melanoma (SK-MEL-28); prostate carcinoma (DU-145). Normal tissues foreskin fibroblasts (CRL-7065) were also used. Cells were seeded at 1 × 10^5 cells/mL in 96 well plates in specific media supplemented with 10% FCS and antibiotics, as above. Cell cultures were then incubated at 37 °C in a humidified, 5% CO2 atmosphere in the absence or presence of serial dilutions of test compounds. Cell viability was determined after 96 h at 37 °C by the MTT method.

CCRF-SB = test: Antiproliferative assay (MTT); assay type: cell-based, human; details: concentration reducing cell proliferation by 50%, 96 h, mean of three determinations
Method: as §2, §3

MT-4 = test: Antiproliferative assay (MTT); assay type: cell-based, human; details: concentration reducing cell proliferation by 50%, 96 h, mean of three determinations
Method: as §2, §3

WIL-2NS = test: Antiproliferative assay (MTT); assay type: cell-based, human; details: concentration reducing cell proliferation by 50%, 96 h, mean of three determinations
Method: as §2, §3

DU145 = test: Antiproliferative assay (MTT); assay type: cell-based, human; details: prostate carcinoma, concentration reducing cell proliferation by 50%, 96 h
Method: as §3

SK-MEL-28 = test: Antiproliferative assay (MTT); assay type: cell-based, human; details: skin melanoma, concentration reducing cell proliferation by 50%, 96 h
Method: as §3

CRL7065 = test: Antiproliferative assay (MTT), normal cell line; assay type: cell-based, human; details: normal foreskin fibroblasts, concentration reducing cell proliferation by 50%, 96 h
Method: as §3

HaCaT cells [1] = test: Lactate dehydrogenase (LDH) release assay in HaCaT cells; assay type: cell-based; details: 24 h
Method: Cells were passaged using trypsin-EDTA (Gibco Life Technologies, Carlsbad, CA, USA) and cultured in 24-well plates (2.5 × 10^4 cells per well). Experiments were conducted in DMEM with 2% FBS.
Release of lactate dehydrogenase (LDH) from the cytosol to culture medium is a marker of cell death. The assay was performed after 24 h incubation of HaCaT cells in 24-well plates with investigated concentrations of each compound. The activity of LDH released from the cytosol of damaged cells to the supernatant was measured using the protocol of the cytotoxicity detection kit LDH test described by the manufacturer (Roche Diagnostics, Berlin, Germany). Absorbance was measured at 490 nm using a microplate reader (using Epoch microplate reader, BioTek Inc., Winooski, VT, USA) equipped with Gen5 software (BioTech Instruments, Inc., Biokom, Janki, Polska)
Compounds mediated cytotoxicity expressed as the LDH release (%) was determined by the following equation: [(A test sample—A low control)/(A high control—A low control)] × 100% (A-absorbance); where “low control” were cells in DMEM with 2% FBS without tested compounds, and “high control” were cells incubated in DMEM with 2% FBS with 10% Triton X-100 (100% LDH release).

HaCaT cells [2] = test: Proliferation rate in cultures of HaCaT cells (trypan blue counting); assay type: cell-based, human; details: lowest concentrations (8 µM for 11 and 13, 37 µM for 25), 48 h
Method: Human immortal keratinocyte cell line from adult human skin (HaCaT) was purchased from American Type Culture Collection (Rockville, MD, USA), and cultured in Dulbecco’s Modified Eagle’s Medium (DMEM), supplemented with antibiotics (penicillin and streptomycin), 10% heat-inactivated FBS-fetal bovine serum (Gibco Life Technologies, Carlsbad, CA, USA) at 37 °C and 5% CO2 atmosphere. Cells were passaged using trypsin-EDTA (Gibco Life Technologies, Carlsbad, CA, USA) and cultured in 24-well plates (2.5 × 10^4 cells per well). Experiments were conducted in DMEM with 2% FBS.
After 48 h incubation with the lowest concentration of the tested compound the increased number of viable cells were assessed by direct counting of cells using trypan blue with a Countess Automated Cell Counter (Invitrogen, Carlsbad, CA, USA). The results are presented as a % of viable and dead cells versus control.

[3] = Cytotoxicity against mock-infected MT-4 cells (MTT); assay type: cell-based, human; details: human, concentration reducing viability of mock-infected MT-4 cells by 50%
Outline: as §1

B. cereus ATCC 11778 = test: MIC, twofold serial microdilution; assay type: cell-based; details: Bacillus cereus, ATCC11778; standard strain, 18 h, 35 °C
Method: (§4) The antimicrobial activity of the compounds was tested on Gram-positive bacteria (Staphylococcus aureus NCTC 4163, Staphylococcus aureus ATCC 25923, Staphylococcus aureus ATCC 6538, Staphylococcus aureus ATCC 29213, Staphylococcus epidermidis ATCC 12228, Staphylococcus epidermidis ATCC 35984, Enterococcus faecalis ATCC 29212, Bacillus subtilis ATCC 6633, Bacillus cereus ATCC 11778, Micrococcus luteus ATCC 9341, Micrococcus luteus ATCC 10240); Gram-negative rods (Escherichia coli ATCC 10538, Escherichia coli ATCC 25922, Escherichia coli NCTC 8196, Proteus vulgaris NCTC 4635, Pseudomonas aeruginosa ATCC 15442, Pseudomonas aeruginosa NCTC 6749, Pseudomonas aeruginosa ATCC 27863, Bordetella bronchiseptica ATCC 4617) and yeasts (Candida albicans ATCC 10231, Candida albicans ATCC 90028, Candida parapsilosis ATCC 22019). Other microorganisms used were obtained from the collection of the Department of Pharmaceutical Microbiology, Medical University of Warsaw, Poland.
(§5) Antibacterial activity was examined by the disc-diffusion method under standard conditions using Mueller-Hinton II agar medium (Becton Dickinson) according to CLSI (previously NCCLS) guidelines. Antifungal activities were assessed using Mueller-Hinton agar + 2% glucose and 0.5 µg/mL Methylene Blue Dye Medium. Sterile filter paper discs (9 mm diameter, Whatman No 3 chromatography paper) were dripped with tested compound solutions (in DMSO) to load 400 μg of a given compound per disc. Dry discs were placed on the surface of appropriate agar medium. The results (diameter of the growth inhibition zone) were read after 18 h of incubation at 35 °C. Minimal Inhibitory Concentration (MIC) was tested by the twofold serial microdilution method (in 96-well microtiter plates) using Mueller-Hinton Broth medium (Beckton Dickinson) for bacteria or RPMI-1640 medium for Candida species according to CLSI guidelines. The stock solution of tested agent was prepared in DMSO and diluted in sterile water. Concentrations of tested agents ranged from 0.125 to 512 µg/mL. The final inoculum of all studied microorganisms was 10^5 CFU/ mL^−1 (colony forming units per mL). Minimal inhibitory concentrations (the lowest concentration of a tested agent that prevents visible growth of a microorganism) were read after 18 h (bacteria) or 24 h (yeasts) of incubation at 35 °C.

B. subtilis ATCC 6633 = test: MIC, twofold serial microdilution; assay type: cell-based; details: Bacillus subtilis, ATCC6633; standard strain, 18 h, 35 °C
Method: as §4, §5

M. luteus ATCC 10240 = test: MIC, twofold serial microdilution; assay type: cell-based; details: Micrococcus luteus, ATCC10240; standard strain, 18 h, 35 °C
Method: as §4, §5

M. luteus ATCC 9341 = test: MIC, twofold serial microdilution; assay type: cell-based; details: Micrococcus luteus, ATCC9341; standard strain, 18 h, 35 °C
Method: as §4, §5

S. aureus ATCC 25923 = test: MIC, twofold serial microdilution; assay type: cell-based; details: Staphylococcus aureus, ATCC25923; standard strain, 18 h, 35 °C
Method: as §4, §5

S. aureus ATCC 29213 = test: MIC, twofold serial microdilution; assay type: cell-based; details: Staphylococcus aureus, ATCC29213; standard strain, 18 h, 35 °C
Method: as §4, §5

S. aureus ATCC 6538 = test: MIC, twofold serial microdilution; assay type: cell-based; details: Staphylococcus aureus, ATCC6538; standard strain, 18 h, 35 °C
Method: as §4, §5

S. aureus NCTC 4163 = test: MIC, twofold serial microdilution; assay type: cell-based; details: Staphylococcus aureus, NCTC4163; standard strain, 18 h, 35 °C
Method: as §4, §5

[4] = test system: S. epidermidis ATCC 12228; test: MIC, twofold serial microdilution; assay type: cell-based; details: Staphylococcus epidermidis, ATCC12228; standard strain, 18 h, 35 °C
Method: as §4, §5

[5] = test system: S. epidermidis ATCC 35984; test: MIC, twofold serial microdilution; assay type: cell-based; details: Staphylococcus epidermidis, ATCC35984; standard strain, 18 h, 35 °C
Method: as §4, §5

[6] = test system: S. epidermidis MRSE 403/11; test: MIC, hospital methicillin-resistant strain; assay type: cell-based; details: Staphylococcus epidermidis
Method: as §4, §5

[7] = test system: S. epidermidis MRSE 404/11; test: MIC, hospital methicillin-resistant strain; assay type: cell-based; details: Staphylococcus epidermidis
Method: as §4, §5

[8] = test system: S. epidermidis MRSE 405/11; test: MIC, hospital methicillin-resistant strain; assay type: cell-based; details: Staphylococcus epidermidis
Method: as §4, §5

[9] = test system: S. epidermidis MRSE 406/11; test: MIC, hospital methicillin-resistant strain; assay type: cell-based; details: Staphylococcus epidermidis
Method: as §4, §5

[10] = test system: S. epidermidis MRSE 407/11; test: MIC, hospital methicillin-resistant strain; assay type: cell-based; details: Staphylococcus epidermidis
Method: as §4, §5

[11] = test system: S. epidermidis MRSE 409/11; test: MIC, hospital methicillin-resistant strain; assay type: cell-based; details: Staphylococcus epidermidis
Method: as §4, §5

[12] = test system: S. epidermidis MRSE 411/11; test: MIC, hospital methicillin-resistant strain; assay type: cell-based; details: Staphylococcus epidermidis
Method: as §4, §5

[13] = test system: S. epidermidis MRSE 412/11; test: MIC, hospital methicillin-resistant strain; assay type: cell-based; details: Staphylococcus epidermidis
Method: as §4, §5

[14] = test system: S. epidermidis MRSE 413/11; test: MIC, hospital methicillin-resistant strain; assay type: cell-based; details: Staphylococcus epidermidis
Method: as §4, §5

[15] = test system: S. epidermidis MRSE 422/11; test: MIC, hospital methicillin-resistant strain; assay type: cell-based; details: Staphylococcus epidermidis
Method: as §4, §5

standard strains = test: Antimicrobial activity against set of bacterial and fungal strains; assay type: cell-based; details: range over standard strains
Method: as §4
as §5, with “The stock solution of tested agent was prepared in DMSO and diluted in sterile water. Concentrations of tested agents ranged from 0.125 to 512 µg/mL. The final inoculum of all studied microorganisms was 10^5 CFU/ mL^−1 (colony forming units per mL).” left out

O=[N+]([O-])c1cc(NC(=S)Nc2ccc(Cl)c(Cl)c2)ccc1Cl [Compound 11]
CC50 (MT-4 cells): 7.9 µM | EC50 (HIV-1 IIIB): > 7.9 µM | CC50 (CCRF-CEM): 8 µM | CC50 (CCRF-SB): 8.6 µM | CC50 (MT-4): 7.9 µM | CC50 (WIL-2NS): 9.9 µM | CC50 (DU145): 6 µM | CC50 (SK-MEL-28): 8.5 µM | CC50 (CRL7065): 16 µM | cell mortality (LDH release) increased to (HaCaT cells [1]): 20% | LD10 (concentration at which 10% of cells were dead) (HaCaT cells [1]; LDH assay): 8 µM | inhibition of viable cell proliferation (HaCaT cells [2]): ~65%

CCCCc1ccc(NC(=S)Nc2ccc(Cl)c([N+](=O)[O-])c2)c(C)c1 [Compound 22, 1-(4-butyl-2-methylphenyl)-3-(4-chloro-3-nitrophenyl)thiourea]
CC50 at 96 h [3]: 18.7 µM | EC50 (HIV-1 IIIB; Human immunodeficiency virus 1, IIIB, MT4, 96 h): > 18.7 µM | MIC (B. cereus ATCC 11778): 4 µg/mL (≈ 10.6 µM) | MIC (B. subtilis ATCC 6633): 4 µg/mL (≈ 10.6 µM) | MIC (M. luteus ATCC 10240): 2 µg/mL (≈ 5.29 µM) | MIC (M. luteus ATCC 9341): 4 µg/mL (≈ 10.6 µM) | MIC (S. aureus ATCC 25923): 2 µg/mL (≈ 5.29 µM) | MIC (S. aureus ATCC 29213): 2 µg/mL (≈ 5.29 µM) | MIC (S. aureus ATCC 6538): 2 µg/mL (≈ 5.29 µM) | MIC (S. aureus NCTC 4163): 4 µg/mL (≈ 10.6 µM) | MIC [4]: 4 µg/mL (≈ 10.6 µM) | MIC [5]: 4 µg/mL (≈ 10.6 µM) | MIC [6]: 4 µg/mL (≈ 10.6 µM) | MIC [7]: 8 µg/mL (≈ 21.2 µM) | MIC [8]: 4 µg/mL (≈ 10.6 µM) | MIC [9]: 8 µg/mL (≈ 21.2 µM) | MIC [10]: 4 µg/mL (≈ 10.6 µM) | MIC [11]: 4 µg/mL (≈ 10.6 µM) | MIC [12]: 4 µg/mL (≈ 10.6 µM) | MIC [13]: 8 µg/mL (≈ 21.2 µM) | MIC [14]: 8 µg/mL (≈ 21.2 µM) | MIC [15]: 8 µg/mL (≈ 21.2 µM) | MIC (standard strains): 2 to 4 µg/mL (≈ 5.29 to 10.6 µM) | melting point: 67 to 69 °C
